Source: the NIST ThermoML archive (doi:10.1021/je025620p)

Assay: isobaric coefficient of expansion
Conditions: 303.15 K, Liquid

C1CCCCC1 [cyclohexane]
Conditions	isobaric coefficient of expansion
500 kPa	0.00118 1/K
1000 kPa	0.00117 1/K
2000 kPa	0.00116 1/K
3000 kPa	0.00115 1/K
4000 kPa	0.00114 1/K
5000 kPa	0.00113 1/K
6000 kPa	0.00113 1/K
7000 kPa	0.00112 1/K
8000 kPa	0.00111 1/K
9000 kPa	0.0011 1/K
10000 kPa	0.00109 1/K
11000 kPa	0.00109 1/K
12000 kPa	0.00108 1/K
13000 kPa	0.00107 1/K
14000 kPa	0.00106 1/K
15000 kPa	0.00106 1/K
16000 kPa	0.00105 1/K
17000 kPa	0.00104 1/K
18000 kPa	0.00104 1/K
19000 kPa	0.00103 1/K
20000 kPa	0.00103 1/K
21000 kPa	0.00102 1/K
22000 kPa	0.00101 1/K
23000 kPa	0.00101 1/K
24000 kPa	0.001 1/K
25000 kPa	0.000994 1/K
26000 kPa	0.000988 1/K
27000 kPa	0.000985 1/K
28000 kPa	0.000977 1/K
29000 kPa	0.000975 1/K
30000 kPa	0.00097 1/K

CCCCCCC [heptane]
Conditions	isobaric coefficient of expansion
500 kPa	0.00125 1/K
1000 kPa	0.00124 1/K
2000 kPa	0.00123 1/K
3000 kPa	0.00122 1/K
4000 kPa	0.00121 1/K
5000 kPa	0.00119 1/K
6000 kPa	0.00118 1/K
7000 kPa	0.00117 1/K
8000 kPa	0.00116 1/K
9000 kPa	0.00115 1/K
10000 kPa	0.00114 1/K
11000 kPa	0.00113 1/K
12000 kPa	0.00112 1/K
13000 kPa	0.00111 1/K
14000 kPa	0.0011 1/K
15000 kPa	0.00109 1/K
16000 kPa	0.00108 1/K
17000 kPa	0.00108 1/K
18000 kPa	0.00107 1/K
19000 kPa	0.00106 1/K
20000 kPa	0.00105 1/K
21000 kPa	0.00104 1/K
22000 kPa	0.00104 1/K
23000 kPa	0.00103 1/K
24000 kPa	0.00102 1/K
25000 kPa	0.00101 1/K
26000 kPa	0.00101 1/K
27000 kPa	0.001 1/K
28000 kPa	0.000995 1/K
29000 kPa	0.000988 1/K
30000 kPa	0.000983 1/K

CCCCCC [hexane]
Conditions	isobaric coefficient of expansion
500 kPa	0.00135 1/K
1000 kPa	0.00135 1/K
2000 kPa	0.00133 1/K
2700 kPa	0.00132 1/K
4000 kPa	0.0013 1/K
4900 kPa	0.00129 1/K
6000 kPa	0.00126 1/K
7000 kPa	0.00125 1/K
8000 kPa	0.00124 1/K
9000 kPa	0.00122 1/K
10000 kPa	0.00121 1/K
11000 kPa	0.0012 1/K
12000 kPa	0.00119 1/K
13000 kPa	0.00118 1/K
14100 kPa	0.00116 1/K
14500 kPa	0.00116 1/K
16000 kPa	0.00115 1/K
17000 kPa	0.00114 1/K
18000 kPa	0.00113 1/K
19000 kPa	0.00112 1/K
20000 kPa	0.00111 1/K
21000 kPa	0.0011 1/K
22000 kPa	0.00109 1/K
23000 kPa	0.00108 1/K
24500 kPa	0.00107 1/K
25000 kPa	0.00107 1/K
26000 kPa	0.00106 1/K
27000 kPa	0.00105 1/K
28000 kPa	0.00104 1/K
29000 kPa	0.00104 1/K
30000 kPa	0.00103 1/K

Cc1ccccc1 [toluene]
Conditions	isobaric coefficient of expansion
500 kPa	0.00104 1/K
1000 kPa	0.00104 1/K
2000 kPa	0.00103 1/K
3000 kPa	0.00103 1/K
4000 kPa	0.00102 1/K
5000 kPa	0.00101 1/K
6000 kPa	0.00101 1/K
7000 kPa	0.001 1/K
8000 kPa	0.000996 1/K
9000 kPa	0.00099 1/K
10000 kPa	0.000984 1/K
11000 kPa	0.000977 1/K
12000 kPa	0.000973 1/K
13000 kPa	0.000967 1/K
14000 kPa	0.000962 1/K
15000 kPa	0.000957 1/K
16000 kPa	0.000952 1/K
17000 kPa	0.000947 1/K
18000 kPa	0.000942 1/K
19000 kPa	0.000937 1/K
20000 kPa	0.000932 1/K
21000 kPa	0.000928 1/K
22000 kPa	0.000923 1/K
23000 kPa	0.000918 1/K
24000 kPa	0.000914 1/K
25000 kPa	0.000908 1/K
26000 kPa	0.000904 1/K
27000 kPa	0.000903 1/K
28000 kPa	0.000896 1/K
29000 kPa	0.000896 1/K
30000 kPa	0.000892 1/K
